Experimental findings from patent publication US20210179620A1, “MESOIONIC I[…] AND DERIVATIVES FOR COMBATING ANIMAL PESTS” (BASF SE, priority 2017, published 2021) are described below.

A word on the mortality: it is the share of the test organisms that died.

SMILES strings stand for the structures. Where only a bound is given, the exact number is not on record here.

The subject of assay [1] is green peach aphid (Myzus persicae). In words: Green peach aphid systemic test, artificial diet in 96-well microtiter plates. The conditions noted are these: 72 h, adult aphids on treated artificial diet, 3 days, read-out: mortality in comparison with untreated controls. Type of assay: in vivo. The text has this: Green Peach Aphid (Myzus persicae):
For evaluating control of green peach aphid (Myzus persicae) through systemic means the test unit consisted of 96-well-microtiter plates containing liquid artificial diet under an artificial membrane.
The compounds were formulated using a solution containing 75% v/v water and 25% v/v DMSO. Different concentrations of formulated compounds were pipetted into the 30 aphid diet, using a custom built pipetter, at two replications.
After application, 5-8 adult aphids were placed on the artificial membrane inside the microtiter plate wells. The aphids were then allowed to suck on the treated aphid diet and incubated at about 23˜1° C. and about 50˜5% relative humidity for 3 days. Aphid mortality and fecundity was then visually assessed.

In assay [2] the test system is vetch aphid (Megoura viciae). In words: Vetch aphid contact or systemic test, broad bean leaf disks in 24-well microtiter plates. The assay is classed as in vivo. The note with it: foliar, 120 h, sprayed broad bean leaf disks, adult aphids, 5 days, read-out: mortality in comparison with untreated controls. The method, then:
Vetch Aphid (Megoura viciae):
For evaluating control of vetch aphid (Megoura viciae) through contact or systemic means the test unit consisted of 24-well-microtiter plates containing broad bean leaf disks.
The compounds were formulated using a solution containing 75% v/v water and 25% v/v DMSO. Different concentrations of formulated compounds were sprayed onto the leaf disks at 2.5 μl, using a custom built micro atomizer, at two replications. After application, the leaf disks were air-dried and 5-8 adult aphids placed on the leaf disks inside the microtiter plate wells. The aphids were then allowed to suck on the treated leaf disks and incubated at about 23+1° C. and about 50+5% relative humidity for 5 days. Aphid mortality and fecundity was then visually assessed.

`Cn1c(C(=O)CCl)c([O-])[n+]2c1SCC2c1cnc(Cl)s1` (centres unmarked) [C-1, 6-(2-chloroacetyl)-3-(2-chlorothiazol-5-yl)-7-methyl-2,3-dihydroimidazo[2,1-b]thiazol-4-ium-5-olate]: the mortality at 2500 ppm in assay [1] and in assay [2] was more than 75% in each case.
